In patent US20160250177A1, “MODIFIED DOCETAXEL LIPOSOME FORMULATIONS AND USES THEREOF” (MALLINCKRODT LLC, priority 2015, published 2016):
Read-outs that look alike come from different tables or passages of the source.

Key:
[1] = tested on: human PC3 (prostate) tumor xenograft; assay: Antitumor activity, single IV dose, PC3 xenograft; settings: for Partial Tumor Regression (%) / TGD / TGD (%) / TGI (%) / median survival: single IV
Procedure: Tumor cell lines were implanted subcutaneously into the flank of nude (immunodeficient) mice and allowed to grow to a fixed size. […] In each case, where possible, doses were selected as providing equivalent levels of toxicity/tolerance. […] Tumor volume was analyzed to determine tumor growth delay (TGD) and partial regression. Mice were removed from the study if they lost 20% of their initial bodyweight or became moribund or if their tumor volume exceeded 2500 mm^3 or the tumor ulcerated. If less than half of the initial cohort of mice remained, that group was no longer graphed or included in further tumor analysis. However, any remaining animals were followed until completion of the in-life observation period and included in a survival analysis.

[2] = Tissue distribution in mice with A549 xenograft; settings: for Kidney AUC of docetaxel / Liver AUC of docetaxel / Lung AUC of docetaxel / Muscle AUC of docetaxel / Spleen AUC of docetaxel / Tumor AUC of docetaxel: single IV
Procedure: The plasma pharmacokinetics and distribution were studied in female athymic nude mice each implanted subcutaneously with A549 cells (human non-small cell lung cancer). Once tumors reached a volume of 100-300 mm^3, animals were randomized into 4 groups.
Three animals were sacrificed at 1, 4, 24, 72 (3 days), 168 (7 days), 216 (9 days), 336 (14 days), 432 (18 days) and 504 hours (21 days) post injection.

[3] = tested on: PC3 human prostate xenograft; settings: for median survival: docetaxel
Procedure: In another study, athymic male nude mice bearing PC3 human prostate xenograft were given two or four intravenous (IV) doses of PEGylated TD-1 liposome, Taxotere® or saline. Dosing intervals were twenty-one days for two cycles or every four days for four cycles.
Tumor volume was measured 2-3 times per week using the Biopticon tumor imaging system and tumor volume data was analyzed to determine TGD and partial tumor regression. Survival analysis was conducted and median survival time determined.

[4] = human, in vivo; for AUC(0-inf) / AUC/Dose / CL / Cmax/Dose / Vss: iv
[5] = cited from earlier work
clinical = settings: human, in vivo, iv
[6] = high dose Taxotere® 100 mg/m^2, van Oosterom 1995

CC(=O)O[C@@]12CO[C@@H]1C[C@H](O)[C@@]1(C)C(=O)[C@H](O)C3=C(C)[C@@H](OC(=O)[C@H](O)[C@@H](NC(=O)OC(C)(C)C)c4ccccc4)C[C@@](O)([C@@H](OC(=O)c4ccccc4)[C@H]21)C3(C)C [Docetaxel, docetaxel]
Partial Tumor Regression (%) ([1]; docetaxel 9 mg/kg): 0%
TGD ([1]; docetaxel 9 mg/kg): 11
TGD (%) ([1]; docetaxel 9 mg/kg): 42%
TGI (%) ([1]; docetaxel 9 mg/kg): 38%
median survival ([1]; docetaxel 9 mg/kg): 47 days
Partial Tumor Regression (%) ([1]; docetaxel 18 mg/kg): 33%
TGD ([1]; docetaxel 18 mg/kg): 41
TGD (%) ([1]; docetaxel 18 mg/kg): 154%
TGI (%) ([1]; docetaxel 18 mg/kg): 91%
median survival ([1]; docetaxel 18 mg/kg): 81 days
Partial Tumor Regression (%) ([1]; docetaxel 27 mg/kg): 60%
TGD ([1]; docetaxel 27 mg/kg): 42
TGD (%) ([1]; docetaxel 27 mg/kg): 157%
TGI (%) ([1]; docetaxel 27 mg/kg): 98%
median survival ([1]; docetaxel 27 mg/kg): 84 days
tumor growth ([1]; docetaxel 18 and 27 mg/kg): inhibited tumor growth
survival compared to saline ([1]; docetaxel 18 and 27 mg/kg, all doses of TD-1 liposomes and PEGylated TD-1 liposomes, p<0.05, Mantel-Cox log-rank): increased survival significantly more than saline
Kidney AUC of docetaxel ([2]; docetaxel 30 mg/kg): 28 µg·h/g
Liver AUC of docetaxel ([2]; docetaxel 30 mg/kg): 10 µg·h/g
Lung AUC of docetaxel ([2]; docetaxel 30 mg/kg): 86 µg·h/g
Muscle AUC of docetaxel ([2]; docetaxel 30 mg/kg): 23 µg·h/g
Spleen AUC of docetaxel ([2]; docetaxel 30 mg/kg): 77 µg·h/g
Tumor AUC of docetaxel ([2]; docetaxel 30 mg/kg): 276 µg·h/g
time tumor retained measurable levels of docetaxel ([2]; docetaxel 50 mg/kg): 216 h
Kidney AUC of docetaxel ([2]; docetaxel 50 mg/kg): 179 µg·h/g
Liver AUC of docetaxel ([2]; docetaxel 50 mg/kg): 37 µg·h/g
Lung AUC of docetaxel ([2]; docetaxel 50 mg/kg): 211 µg·h/g
Muscle AUC of docetaxel ([2]; docetaxel 50 mg/kg): 64 µg·h/g
Spleen AUC of docetaxel ([2]; docetaxel 50 mg/kg): 162 µg·h/g
Tumor AUC of docetaxel ([2]; docetaxel 50 mg/kg): 442 µg·h/g
time after which docetaxel concentrations fell below the limits of quantitation in most tissues ([2]; docetaxel 50 mg/kg, all tissues except tumor): 24 h
time after which tumor levels of docetaxel fell below the levels of quantitation (1.0 μg/g) ([2]; intravenous injection of docetaxel): nine
growth of PC3 human prostate xenograft (mean tumor volume over time) ([3]; IV administration, FIG. 8A): dose dependently inhibited growth
Partial Tumor Regression (%) ([3]; docetaxel 5 mg/kg (q4dx4)): 0%
TGD ([3]; docetaxel 5 mg/kg (q4dx4)): 34 days
TGD (%) ([3]; docetaxel 5 mg/kg (q4dx4)): 213%
Partial Tumor Regression (%) ([3]; docetaxel 10 mg/kg (q4dx4)): 80%
TGD ([3]; docetaxel 10 mg/kg (q4dx4)): 69 days
TGD (%) ([3]; docetaxel 10 mg/kg (q4dx4)): 431%
Partial Tumor Regression (%) ([3]; docetaxel 30 mg/kg (q21dx2)): 100%
TGD ([3]; docetaxel 30 mg/kg (q21dx2)): 73 days
TGD (%) ([3]; docetaxel 30 mg/kg (q21dx2)): 456%
Partial Tumor Regression (%) ([3]; docetaxel 60 mg/kg (q21dx2)): 100%
TGD ([3]; docetaxel 60 mg/kg (q21dx2)): 86 days
TGD (%) ([3]; docetaxel 60 mg/kg (q21dx2)): 538%
median survival ([3]; 1st dose group listed (5 mg/kg q4dx4 by order of Table 8)): 62 days
median survival ([3]; 2nd dose group listed (10 mg/kg q4dx4 by order of Table 8)): 88 days
median survival ([3]; 3rd dose group listed (30 mg/kg q21dx2 by order of Table 8)): 93 days
median survival ([3]; 4th dose group listed (60 mg/kg q21dx2 by order of Table 8)): 107 days
CL (mean) [4]: 14.13 L/h/m^2
Cmax and AUC with respect to dose [4]: remained linear with respect to dose
Vss (mean) [4]: 458.8 L/m^2
dose proportionality for Cmax and AUCinf [4]: demonstrate dose proportionality
AUC(0-inf) ([4]; 3 mg/m2): 225 ng·h/mL
AUC(0-inf) ([4]; 6 mg/m2): 265 ng·h/mL
AUC(0-inf) ([4]; 12 mg/m2): 721 ng·h/mL
AUC/Dose ([4]; 12 mg/m2): 60.1 m^2 · ng · h/ml/mg
CL ([4]; 12 mg/m2): 16.92 l/h/m^2
Cmax/Dose ([4]; 12 mg/m2): 6.22 m^2 · ng/ml/mg
Vss ([4]; 12 mg/m2): 257.1 l/m^2
AUC(0-inf) ([4]; 24 mg/m2): 4899 ng·h/mL
AUC(0-inf) ([4]; 48 mg/m2): 5297 ng·h/mL
AUC/Dose ([4]; 48 mg/m2): 110.4 m^2 · ng · h/ml/mg
CL ([4]; 48 mg/m2): 13.29 l/h/m^2
Cmax/Dose ([4]; 48 mg/m2): 3.90 m^2 · ng/ml/mg
Vss ([4]; 48 mg/m2): 705.3 l/m^2
AUC(0-inf) ([4]; 80 mg/m2): 4798 ng·h/mL
AUC(0-inf) ([4]; 120 mg/m2): 28103 ng·h/mL
AUC/Dose ([4]; 120 mg/m2): 234.2 m^2 · ng · h/ml/mg
CL ([4]; 120 mg/m2): 7.15 l/h/m^2
Cmax/Dose ([4]; 120 mg/m2): 5.85 m^2 · ng/ml/mg
Vss ([4]; 120 mg/m2): 292.5 l/m^2
AUC(0-inf) ([4]; 160 mg/m2): 16518 ng·h/mL
AUC/Dose ([4]; 225 mg/m2): 150.8 m^2 · ng · h/ml/mg
CL ([4]; 225 mg/m2): 6.75 l/h/m^2
Cmax/Dose ([4]; 225 mg/m2): 4.64 m^2 · ng/ml/mg
Vss ([4]; 225 mg/m2): 413.4 l/m^2
AUC/Dose ([4]; 320 mg/m2): 117.6 m^2 · ng · h/ml/mg
CL ([4]; 320 mg/m2): 9.14 l/h/m^2
Cmax/Dose ([4]; 320 mg/m2): 5.43 m^2 · ng/ml/mg
Vss ([4]; 320 mg/m2): 404.0 l/m^2
reported t1/2 ([5]; Taxotere® (docetaxel), Clarke & Rivory 1999, Prescribing Information): 12 h
docetaxel Cmax [5, 6]: 2680 ng/mL
docetaxel half-life [5, 6]: 10 to 19 h
docetaxel Cmax associated with increased incidence of adverse effects ([5]; plasma, therapeutic window, FIG. 2): above 0.64 μg/ml
Cmax (clinical; 3 mg/m2): 15.5 ng/mL
half-life (clinical; 3 mg/m2, t1/2): 14 h
Cmax (clinical; 6 mg/m2): 36.3 ng/mL
half-life (clinical; 6 mg/m2, t1/2): 9.32 h
Cmax (clinical; 12 mg/m2): 74.7 ng/mL
half-life (clinical; 12 mg/m2, t1/2): 12.3 h
Cmax (clinical; 24 mg/m2): 149 ng/mL
half-life (clinical; 24 mg/m2, t1/2): 55.3 h
Cmax (clinical; 48 mg/m2): 187 ng/mL
half-life (clinical; 48 mg/m2, t1/2): 73.5 h
Cmax (clinical; 80 mg/m2): 307 ng/mL
half-life (clinical; 80 mg/m2, t1/2): 28.8 h
Cmax (clinical; 120 mg/m2): 702 ng/mL
half-life (clinical; 120 mg/m2, t1/2): 45.8 h
Cmax (clinical; 160 mg/m2): 879 ng/mL
half-life (clinical; 160 mg/m2, t1/2): 51.1 h
AUC(0-inf) (clinical; 190 mg/m2): 18800 ng·h/mL
Cmax (clinical; 190 mg/m2): 1130 ng/mL
half-life (clinical; 190 mg/m2, t1/2): 51.9 h
AUC(0-inf) (clinical; 225 mg/m2): 33900 ng·h/mL
Cmax (clinical; 225 mg/m2): 1040 ng/mL
half-life (clinical; 225 mg/m2, t1/2): 61.8 h
AUC(0-inf) (clinical; 270 mg/m2): 26200 ng·h/mL
Cmax (clinical; 270 mg/m2): 1190 ng/mL
half-life (clinical; 270 mg/m2, t1/2): 35.5 h
AUC(0-inf) (clinical; 320 mg/m2): 37600 ng·h/mL
Cmax (clinical; 320 mg/m2): 1740 ng/mL
half-life (clinical; 320 mg/m2, t1/2): 40.8 h
AUC(0-inf) (clinical; 380 mg/m2): 107000 ng·h/mL
Cmax (clinical; 380 mg/m2): 2900 ng/mL
half-life (clinical; 380 mg/m2, t1/2): 67.7 h
